Measured values as given in PMC3105092 (PLoS ONE, 2011).
Several values for one entry are separate records, joined by “and”; a condition that tells them apart may be missing. Equal entries are not always repeated.

Legend:
AgCPR [1] = molecular target: T1, AgCPR (Anopheles gambiae, UniProt Q86QH5); test: Cytochrome c and NADPH steady-state kinetics, AgCPR; type: biochemical; conditions: phosphate buffer, 50 µM NADPH, 25°C; read-out: Km cytc
Experimental: (§3) The rate of change of absorbance of horse heart cytochrome c (Sigma-Aldrich, UK) at 550 nm was measured at 25°C using a Cary 4000 UV-Visible spectrophotometer essentially as described [17]. For cytochrome c kinetics, 0.75 pmol purified AgCPR or hCPR was pre-incubated with 0–110 µM cytochrome c (dissolved in 0.3 M potassium phosphate buffer; pH 7.7 or 0.1 M Tris-HCl, pH 7.7/0.1 M KCl) in a total volume of 500 µl for 2 min at 25°C.

hCPR [2] = molecular target: T2, hCPR (Homo sapiens, UniProt P16435); test: Cytochrome c and NADPH steady-state kinetics, hCPR; type: biochemical; conditions: phosphate buffer, 50 µM NADPH, 25°C; read-out: Km cytc
T2 sequence (P16435 43-677 limits assumed): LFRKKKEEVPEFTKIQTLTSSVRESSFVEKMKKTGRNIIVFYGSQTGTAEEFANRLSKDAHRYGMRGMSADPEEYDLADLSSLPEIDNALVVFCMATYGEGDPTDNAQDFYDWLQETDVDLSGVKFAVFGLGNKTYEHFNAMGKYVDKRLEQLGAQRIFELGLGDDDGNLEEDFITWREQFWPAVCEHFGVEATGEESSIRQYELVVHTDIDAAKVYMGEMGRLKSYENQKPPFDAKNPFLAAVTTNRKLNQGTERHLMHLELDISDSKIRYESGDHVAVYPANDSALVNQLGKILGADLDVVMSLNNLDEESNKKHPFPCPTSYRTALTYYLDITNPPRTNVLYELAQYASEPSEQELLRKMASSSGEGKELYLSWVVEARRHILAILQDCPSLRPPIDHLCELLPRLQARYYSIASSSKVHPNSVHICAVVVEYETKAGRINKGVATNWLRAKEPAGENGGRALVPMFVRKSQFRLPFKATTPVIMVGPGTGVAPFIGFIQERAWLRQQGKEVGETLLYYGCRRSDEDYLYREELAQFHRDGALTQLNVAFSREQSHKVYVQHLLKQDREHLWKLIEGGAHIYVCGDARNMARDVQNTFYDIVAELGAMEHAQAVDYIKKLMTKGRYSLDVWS
Experimental: as §3

[3] = molecular target: human anchorless NADPH-cytochrome P450 oxidoreductase (hCPR) (human) (UniProt P16435)
Chain of human anchorless NADPH-cytochrome P450 oxidoreductase (hCPR) (human) (P16435 2-21): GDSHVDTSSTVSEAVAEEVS

[4] = molecular target: Δ63AgCPR (Anopheles gambiae NADPH-cytochrome P450 oxidoreductase lacking the N-terminal membrane anchor) (Anopheles gambiae)
hCPR (human CPR) = molecular target: T3, hCPR (human CPR) (Homo sapiens, UniProt P16435); test: Isothermal titration calorimetry of nucleotide ligands with hCPR; type: binding; conditions: ITC, 25°C, 100 mM BES pH 7.0
T3 sequence (P16435 43-677 limits assumed): T2 sequence (P16435 43-677 limits assumed)
Experimental: (§1) ITC experiments were performed using a ITC200 microcalorimeter (Microcal Inc/GE Healthcare). Protein samples were dialysed into 100 mM BES; pH 7.0 from 50% glycerol stocks stored at −20°C. The concentrations of all the proteins were determined by using Bradford assay. Samples were centrifuged at 13,000×g for 10 min and degassed at 23°C (2°C below the temperature at which the experiments were performed). All experiments were performed at 25°C. Typically, the protein concentration in the cell was 10–20 µM whilst ligand concentrations were in the range of 100–1000 µM. The data analysed using Origin 7.0 (Microcal) after subtracting the heats of dilution obtained from parallel experiments performed by injecting the nucleotide into the buffer. Thermodynamic parameters n (stoichiometry), K d (1/K a, the association constant), and Δ°H (enthalpy change) were obtained by nonlinear least-squares fitting of experimental data using the single-site binding model. The free energy of binding (ΔG°) and entropy change (ΔS°) were obtained using eqs 1 and 2.

[5] = molecular target: T4, AgCPR (Anopheles gambiae NADPH-cytochrome P450 oxidoreductase) (Anopheles gambiae, UniProt Q86QH5); test: Isothermal titration calorimetry of nucleotide ligands with AgCPR; type: binding; conditions: for Kobs / TΔS / n (binding stoichiometry) / ΔG / ΔH: 25°C, 100 mM BES pH 7.0
T4 sequence (Q86QH5 64-679): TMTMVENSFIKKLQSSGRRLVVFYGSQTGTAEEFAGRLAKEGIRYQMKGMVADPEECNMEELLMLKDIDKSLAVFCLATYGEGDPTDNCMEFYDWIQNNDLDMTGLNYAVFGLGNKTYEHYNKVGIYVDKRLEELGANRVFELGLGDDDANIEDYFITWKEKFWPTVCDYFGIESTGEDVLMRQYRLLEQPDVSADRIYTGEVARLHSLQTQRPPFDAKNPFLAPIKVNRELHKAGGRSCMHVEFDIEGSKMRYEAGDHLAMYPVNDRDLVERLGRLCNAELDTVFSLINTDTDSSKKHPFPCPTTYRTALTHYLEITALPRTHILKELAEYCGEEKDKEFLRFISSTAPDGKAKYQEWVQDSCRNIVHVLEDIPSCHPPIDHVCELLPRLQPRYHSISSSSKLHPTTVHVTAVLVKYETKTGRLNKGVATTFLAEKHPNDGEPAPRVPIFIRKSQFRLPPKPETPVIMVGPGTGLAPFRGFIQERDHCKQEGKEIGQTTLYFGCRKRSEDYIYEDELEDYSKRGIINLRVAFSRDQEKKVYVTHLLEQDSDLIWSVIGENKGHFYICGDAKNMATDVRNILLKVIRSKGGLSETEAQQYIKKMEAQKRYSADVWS
Experimental: as §1

AgCPR [6] = molecular target: T1, AgCPR; test: Inhibition of cytochrome c reduction by AgCPR; type: biochemical
Experimental: (§4) Measurement of cytochrome c reduction was carried out at 25°C with 50 µM cytochrome c and 0.75 pmol purified AgCPR or hCPR essentially as described [17] using 0.3 M potassium phosphate buffer, pH 7.7 or 0.1 M Tris-HCl, pH 7.7/0.1 M KCl, and different concentrations of 2′, 5′-ADP, 2′-AMP, NADP or diphenyliodonium chloride (all from Sigma-Aldrich, UK).

hCPR [7] = molecular target: T2, hCPR; test: Inhibition of cytochrome c reduction by hCPR; type: biochemical
Experimental: as §4

[8] = molecular target: methionine synthase reductase; conditions: read-out: low affinity binding mode (Kd); cited from earlier work
hCPR [9] = molecular target: T5, hCPR (Homo sapiens, UniProt P16435); test: Isothermal titration calorimetry of oxidised CPR with nucleotides in phosphate-free 100 mM BES, pH 7.0, 25 °C, single-site model; Kd = 1/Kobs.; type: binding
T5 construct: gene POR
T5 sequence (P16435 64-677): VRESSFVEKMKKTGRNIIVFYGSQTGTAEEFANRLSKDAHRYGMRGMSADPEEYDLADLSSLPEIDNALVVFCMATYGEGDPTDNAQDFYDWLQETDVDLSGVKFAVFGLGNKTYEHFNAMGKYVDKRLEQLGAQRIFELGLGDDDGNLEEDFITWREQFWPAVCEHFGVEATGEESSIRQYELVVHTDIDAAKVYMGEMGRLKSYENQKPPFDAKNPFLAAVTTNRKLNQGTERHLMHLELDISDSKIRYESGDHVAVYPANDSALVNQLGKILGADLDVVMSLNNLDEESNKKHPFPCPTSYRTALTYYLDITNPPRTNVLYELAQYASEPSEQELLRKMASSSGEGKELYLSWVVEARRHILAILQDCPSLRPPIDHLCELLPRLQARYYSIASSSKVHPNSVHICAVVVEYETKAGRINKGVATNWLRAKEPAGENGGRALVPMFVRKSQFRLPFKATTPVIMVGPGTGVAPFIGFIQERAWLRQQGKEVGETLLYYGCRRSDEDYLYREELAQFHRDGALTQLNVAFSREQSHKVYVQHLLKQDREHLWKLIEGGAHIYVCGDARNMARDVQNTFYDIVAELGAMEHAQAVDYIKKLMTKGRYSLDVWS
Excerpt: Figure 3 represents the ITC binding isotherms resulting from the titration of AgCPR with 2′, 5′-ADP, NADP+ and 2′-AMP.

hCPR [10] = molecular target: T5, hCPR; test: Inhibition of cytochrome c (50 µM) reduction in phosphate-free 0.1 M Tris-HCl pH 7.7/0.1 M KCl, 25 °C, started with 12 µM (AgCPR) or 5 µM (hCPR) NADPH.; type: biochemical; conditions: SEM; read-out: IC50 µM (±S.E.), Tris Buffer
Experimental: as §4

AgCPR [11] = molecular target: T1, AgCPR; test: Inhibition of cytochrome c (50 µM) reduction in 0.3 M potassium phosphate pH 7.7, 25 °C, started with 30 µM NADPH (AgCPR).; type: biochemical; set-up: Δ63AgCPR: soluble, membrane anchor (amino acids 2-63) deleted; His-tag removed by thrombin; expressed in E. coli; conditions: SEM; read-out: IC50 µM (±S.E.), Phosphate Buffer
Experimental: as §4

AgCPR [12] = molecular target: T1, AgCPR; test: Inhibition of cytochrome c (50 µM) reduction in phosphate-free 0.1 M Tris-HCl pH 7.7/0.1 M KCl, 25 °C, started with 12 µM (AgCPR) or 5 µM (hCPR) NADPH.; type: biochemical; set-up: Δ63AgCPR: soluble, membrane anchor (amino acids 2-63) deleted; His-tag removed by thrombin; expressed in E. coli; conditions: SEM; read-out: IC50 µM (±S.E.), Tris Buffer
Experimental: as §4

[13] = molecular target: T6, isolated apo-human FMN-binding domain of CPR (Homo sapiens, UniProt P16435); test: Isothermal titration calorimetry of FMN with apo-human FMN-binding domain; conditions: ITC, 25°C, 100 mM BES
T6 sequence (P16435 80-224 limits assumed): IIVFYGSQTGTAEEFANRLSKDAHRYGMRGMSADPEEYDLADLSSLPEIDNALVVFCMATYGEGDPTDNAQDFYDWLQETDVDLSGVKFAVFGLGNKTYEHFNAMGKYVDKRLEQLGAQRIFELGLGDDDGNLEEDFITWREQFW
Experimental: as §1
(§2) The binding affinity of FMN to the isolated FMN-binding domains of both A. gambiae and hCPR were also examined by titration of the apo-FMN binding domains (Figure 4). Both isotherms show reasonable binding and saturation of the apo-proteins is achieved with excess flavin.

[14] = molecular target: isolated apo-A. gambiae FMN-binding domain of CPR (Anopheles gambiae, UniProt Q86QH5); test: Isothermal titration calorimetry of FMN with apo-A. gambiae FMN-binding domain; conditions: ITC
Experimental: as §1, §2

[15] = IC50 (±S.E.), inhibition of cytochrome c reduction, Human CPR, Phosphate Buffer (0.3 M potassium phosphate pH 7.7), 15 µM NADPH, 50 µM cytochrome c, 25°C
[16] = 25°C, 100 mM BES, A. gambiae apo-FMN domain
[17] = read-out: IC50 (±S.E.), inhibition of cytochrome c reduction

Chain of horse heart cytochrome c (P00004 whole entry): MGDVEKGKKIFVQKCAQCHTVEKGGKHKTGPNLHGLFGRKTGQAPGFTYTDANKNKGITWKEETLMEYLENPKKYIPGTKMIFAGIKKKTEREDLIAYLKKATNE

cytochrome c: horse heart cytochrome c, surrogate electron acceptor for measuring diflavin reductase activity
Km (AgCPR [1]): 23 µM | Km (hCPR [2]): 19 µM

horse heart cytochrome c (from UniProt P00004 1-105) (natural protein)
Km^cytc of NADPH-dependent cytochrome c reduction (steady state, 0-110 µM cytochrome c, phosphate buffer, 25°C) [3]: 19 µM | Km^cytc of NADPH-dependent cytochrome c reduction (steady state, 0-110 µM cytochrome c, phosphate buffer, 25°C) [4]: 23 µM

NADP^+
Kobs (hCPR (human CPR)): 145±24.5 ×10^5 M^−1 | TΔS (hCPR (human CPR)): -8.91 kcal/mol | n (binding stoichiometry) (hCPR (human CPR)): 1.01±0.12 | ΔG (hCPR (human CPR)): -10.55 kcal/mol | ΔH (hCPR (human CPR)): -19.46 kcal/mol and -19.46 ± 2.92 kcal/mol

Nc1ncnc2c1ncn2[C@@H]1O[C@H](COP(=O)(O)O)[C@@H](O)[C@H]1OP(=O)(O)O [2′,5′-ADP]
Kd [5]: 0.41 ± 0.018 µM | binding (Kd) to AgCPR weaker than hCPR (fold) ([5]; ITC): ~10 fold | Kobs ([5]; ITC): 24.4±1.07 ×10^5 M^−1 | TΔS ([5]; ITC): -4.73 kcal/mol | n (binding stoichiometry) ([5]; ITC): 1.01±0.03 | ΔG ([5]; ITC): -8.40 kcal/mol | ΔH ([5]; ITC): -13.13 kcal/mol and -13.13 ± 0.35 kcal/mol | Kobs (hCPR (human CPR)): 263±26.3 ×10^5 M^−1 | TΔS (hCPR (human CPR)): -9.97 kcal/mol | n (binding stoichiometry) (hCPR (human CPR)): 1.00±0.02 | ΔG (hCPR (human CPR)): -10.39 kcal/mol | ΔH (hCPR (human CPR)): -20.36 kcal/mol and -20.36 ± 0.53 kcal/mol | IC50 of AgCPR relative to hCPR (fold higher) (AgCPR [6]; both phosphate and phosphate-free buffer): 6–10 fold | affinity for mosquito CPR lower than human (fold, from IC50) (AgCPR [6]; phosphate-free Tris buffer): 6 fold | IC50 (hCPR [7]; [15]): 28 ± 2 µM | Kd [8]: ~0.5 µM

c1ccc([I+]c2ccccc2)cc1 [diphenyliodonium chloride]
IC50 (AgCPR [6]): 28 ± 2 µM | AgCPR more sensitive to inhibition than hCPR (fold) (AgCPR [6]; cytochrome c reduction, phosphate buffer): ~10 fold

Nc1ncnc2c1ncn2[C@@H]1O[C@H](CO)[C@@H](O)[C@H]1OP(=O)(O)O [2′-AMP, adenosine 2′-monophosphate]
Kd (hCPR [9]): 1.6 ± 0.44 µM | IC50 (hCPR [10]): 280 ± 25 µM | IC50 (AgCPR [11]): 1090 ± 202 µM | IC50 (AgCPR [12]): 384 ± 27 µM

Nc1ncnc2c1ncn2[C@@H]1O[C@H](COP(=O)(O)O)[C@@H](O)[C@H]1OP(=O)(O)O [2′,5′-ADP, adenosine 2′,5′-diphosphate]
Kd (hCPR [9]): 0.038 ± 0.0038 µM | IC50 (hCPR [10]): 10 ± 1 µM | IC50 (AgCPR [11]): 262 ± 18 µM | IC50 (AgCPR [12]): 62 ± 7 µM

Cc1cc2nc3c(=O)[nH]c(=O)nc-3n(C[C@H](O)[C@H](O)[C@H](O)COP(=O)(O)O)c2cc1C [FMN, flavin mononucleotide]
Kd [13]: 0.023 ± 0.0009 µM | Kobs [13]: 438±17.5 ×10^5 M^−1 | n (binding stoichiometry) [13]: 1.00±0.01 | ΔG [13]: -10.28 kcal/mol | ΔH [13]: -19.46 ± 0.35 kcal/mol | FMN binding to A. gambiae FMN domain weaker than human domain (fold) [14]: ~4 fold | Kd [14, 16]: 0.083 ± 0.002 µM | Kobs [14, 16]: 120±3.19 ×10^5 M^−1 | TΔS [14, 16]: -3.58 kcal/mol | n (binding stoichiometry) [14, 16]: 0.98±0.01 | ΔG [14, 16]: -9.60 kcal/mol | ΔH [14, 16]: -13.18 ± 0.19 kcal/mol

Nc1ncnc2c1ncn2[C@@H]1O[C@H](CO)[C@@H](O)[C@H]1OP(=O)(O)O [2′-AMP]
Kd [5]: 4 ± 0.18 µM | Kobs ([5]; ITC): 2.51±0.11 ×10^5 M^−1 | TΔS ([5]; ITC): -2.19 kcal/mol | n (binding stoichiometry) ([5]; ITC): 1.01±0.22 | ΔG ([5]; ITC): -5.47 kcal/mol | ΔH ([5]; ITC): -7.66 ± 1.98 kcal/mol | Kobs (hCPR (human CPR)): 6.15±1.69 ×10^5 M^−1 | TΔS (hCPR (human CPR)): -3.21 kcal/mol | n (binding stoichiometry) (hCPR (human CPR)): 1.02±0.06 | ΔG (hCPR (human CPR)): -7.86 kcal/mol | ΔH (hCPR (human CPR)): -11.07 ± 0.88 kcal/mol | IC50 (AgCPR [6]; [17]): 468 µM | IC50 (hCPR [7]; [15]): 1090 µM | IC50 (hCPR [7]; [17]): 468 ± 41 µM
